Results on 32 compounds are retold here after article PMC8608967, “KDS2010, a Newly Developed Reversible MAO-B Inhibitor, as an Effective Therapeutic Candidate for Parkinson’s Disease” (Neurotherapeutics, 2021).

Series [1] addresses T1, human recombinant MAO-B (hMAO-B) (Homo sapiens, UniProt P27338).
T1 construct: purchased Sigma Aldrich
T1 sequence (P27338 1-520): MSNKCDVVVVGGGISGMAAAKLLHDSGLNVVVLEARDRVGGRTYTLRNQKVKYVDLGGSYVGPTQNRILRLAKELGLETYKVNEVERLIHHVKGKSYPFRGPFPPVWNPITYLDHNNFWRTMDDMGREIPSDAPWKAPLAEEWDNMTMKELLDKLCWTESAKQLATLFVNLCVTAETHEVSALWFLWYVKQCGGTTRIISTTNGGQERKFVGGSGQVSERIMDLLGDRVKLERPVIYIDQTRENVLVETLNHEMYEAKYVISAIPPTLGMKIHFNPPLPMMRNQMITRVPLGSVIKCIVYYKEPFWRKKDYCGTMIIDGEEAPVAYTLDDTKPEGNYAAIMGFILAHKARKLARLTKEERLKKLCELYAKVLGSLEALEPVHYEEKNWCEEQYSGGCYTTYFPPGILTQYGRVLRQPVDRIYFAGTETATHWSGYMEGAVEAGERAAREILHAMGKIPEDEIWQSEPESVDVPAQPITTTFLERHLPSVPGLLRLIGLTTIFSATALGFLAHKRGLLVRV
Put plainly: In vitro MAO-B enzyme assay (H2O2 release, absorbance 570 nm). The following applies: for IC50: hMAO-B, substrate benzylamine, read-out: Inhibition (IC50) MAO-B; for SI (selectivity index), IC50(MAO-A)/IC50(MAO-B): selectivity for MAO-B isoform. The format is biochemical.
Protocol: (§1) In brief, human recombinant MAO-A (hMAO-A) and MAO-B (hMAO-B) (Sigma Aldrich) were diluted in 50 mM phosphate buffer (~ 0.3 μg MAO-A protein/well or ~ 2.5 μg MAO-B protein/well), and the test compound was added in DMSO to a final concentration from 0.1 nM to 10 μM. The amount of hydrogen peroxide (H2O2) released after addition of enzyme substrate (p-tyramine for MAO-A or benzylamine for MAO-B) was quantified by measuring the absorbance increase at 570 nm on a microplate reader.

Series [2] has as its target T2, human recombinant MAO-A (hMAO-A) (Homo sapiens, UniProt P21397).
T2 construct: purchased Sigma Aldrich
T2 sequence (P21397 1-527): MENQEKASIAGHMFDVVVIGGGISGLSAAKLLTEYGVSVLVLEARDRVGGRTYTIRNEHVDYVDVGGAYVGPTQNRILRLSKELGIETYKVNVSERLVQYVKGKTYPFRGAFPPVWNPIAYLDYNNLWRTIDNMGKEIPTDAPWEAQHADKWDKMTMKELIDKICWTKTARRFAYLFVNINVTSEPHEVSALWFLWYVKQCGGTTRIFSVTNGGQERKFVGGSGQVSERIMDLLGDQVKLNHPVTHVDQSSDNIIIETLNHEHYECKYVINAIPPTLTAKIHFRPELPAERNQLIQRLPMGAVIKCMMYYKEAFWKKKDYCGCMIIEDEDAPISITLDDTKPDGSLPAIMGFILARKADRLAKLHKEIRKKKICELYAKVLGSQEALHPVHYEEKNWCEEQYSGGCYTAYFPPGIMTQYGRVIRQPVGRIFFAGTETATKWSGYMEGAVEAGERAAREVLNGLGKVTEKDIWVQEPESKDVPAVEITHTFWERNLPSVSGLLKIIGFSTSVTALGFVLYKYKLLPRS
The series is described as follows: In vitro MAO-A enzyme assay (H2O2 release, absorbance 570 nm). Type of series: biochemical. Conditions: substrate p-tyramine, read-out: Inhibition (IC50) MAO-A.
Protocol: as §1

For series [3], the target named is T1, human recombinant MAO-B (hMAO-B). Conditions: cited from earlier work; for IC50: read-out: Inhibition (IC50) MAO-B; for SI (selectivity index), IC50(MAO-A)/IC50(MAO-B): selectivity for MAO-B isoform.
Series [4] concerns the target T2, human recombinant MAO-A (hMAO-A). The following applies: ref Park, JH. et al. Science Advances. 5(3), eaav0136 (2019), read-out: Inhibition (IC50) MAO-A; cited from earlier work.
Series [5] concerns MPTP-induced PD mouse model. Put plainly: MPTP mouse model: vertical grid test and coat hanger test. The format is in vivo. Conditions: MPTP mice; long-term (30-day) treatment, 10 mg/kg/day oral.
Protocol: Group allocation and outcome assessment, but not the conduct of experiments and data analysis, were performed in a blinded manner. Throughout the study, confounders were not controlled. An acclimation period of 7 days was allowed for animals to stabilize in a new environment before model induction. […] Treatment drugs were dissolved in 100 μL of water and total dose (in mg) was calculated according to individual body weight (in kg).
The MPTP model was established using the acute regimen of four intraperitoneal (i.p.) injections of MPTP-HCl (M0896, Sigma Aldrich, 2 mg/mL in saline, 20 mg/kg for one injection) at 2-h intervals.
Motor deficits of the MPTP-induced PD mouse model were assessed using the vertical grid test as described in the previous study [23]. Briefly, after 2 days of habituation to the testing apparatus, individual mice were gently placed 3 cm from the top, facing upward, and allowed to turn around and climb down. We also performed a coat hanger test as described [24–26]. Briefly, a mouse was gently hung on the middle of a coat hanger and allowed to ascend to the top. Performance was graded as follows: 0, falling off the hanger within 20 s; 1, moving to the side-bar of the hanger; 2, reaching the side-bar of the hanger; 3, climbing the side-bar of the hanger; 4, moving to the top of the hanger; 5, climbing and reaching the safe zone. The test was performed twice and each trial lasted a maximum of 3 min.
Setting [6] is: hMAO-B, ref Park, JH. et al. Science Advances. 5(3), eaav0136 (2019).
[7] abbreviates: ref Park, JH. et al. Science Advances. 5(3), eaav0136 (2019).

As usually defined, the melting point is the temperature of the solid-liquid transition. As usually defined, the IC50 is the midpoint of a concentration-inhibition curve.

Structures are written as SMILES. Read-outs that look alike come from different tables or passages of the source.

`CS(=O)(=O)O.NC(=O)CNCc1ccc(-c2ccccc2)cc1` [Compound 17a] showed a melting point of 233 to 236 °C. The IC50 in series [1] is > 10 µM. For the same compound, in series [2], the concentration for half-maximal inhibition (IC50) was > 100 µM.
For `NC(=O)CNCc1ccc(-c2ccc(F)cc2)cc1` [Compound 17d] the same measures were 238 to 242 °C, > 10 µM and > 100 µM.
`NC(=O)CNCc1ccc(-c2cccc(Cl)c2)cc1` [Compound 17f]: the melting point is 165 to 168 °C. Besides, in series [1], the IC50 was 1.56 ± 0.071 µM and the “SI (selectivity index), IC50(MAO-A)/IC50(MAO-B)” value (from here on “SI (selectivity index)”) is recorded as > 64. Further, the 50% inhibitory concentration (IC50) in series [2] was > 100 µM.
In turn, `NC(=O)CNCc1ccc(-c2ccc(Cl)cc2)cc1` [Compound 17g] showed a melting point of 262 to 266 °C. In series [1], the half-inhibitory concentration (IC50) came out at 1.43 ± 0.1 µM and the “SI (selectivity index)” value was > 70. In series [2], the concentration for half-maximal inhibition (IC50) was > 100 µM.
Compound `NC(=O)CNCc1ccc(-c2cccc(C(F)(F)F)c2)cc1` [Compound 17i] showed a melting point of 168 to 169 °C. In series [1], the IC50 is 0.999 ± 0.059 µM and the “SI (selectivity index)” value is given as > 100. In series [2], the half-inhibitory concentration (IC50) is > 100 µM.
For the compound `NC(=O)CNCc1ccc(-c2ccc(C(F)(F)F)cc2)cc1` [Compound 17j], the melting point lay within 255 to 256 °C. Also, in series [1], the half-maximal inhibitory concentration (IC50) worked out at 0.121 ± 0.08 µM and the “SI (selectivity index)” value is > 826. In series [1] (substitution of CH3 with H at X), the “fold increase in the IC50 for MAO-B inhibition versus 18j (KDS2010)” value was 15 fold. Also, in series [2], the IC50 was > 100 µM.
Regarding `NC(=O)CNCc1ccc(-c2cccc(OC(F)(F)F)c2)cc1` [Compound 17k], the melting point was in the range of 152 to 156 °C. Moreover, in series [1], the 50% inhibitory concentration (IC50) amounted to 0.323 ± 0.088 µM and the “SI (selectivity index)” value is reported as > 310. Besides, the concentration for half-maximal inhibition (IC50) in series [2] was > 100 µM.
For `NC(=O)CNCc1ccc(-c2ccc(OC(F)(F)F)cc2)cc1` [Compound 17l] the same measures were 217 to 220 °C, 0.137 ± 0.07 µM, > 730 and > 100 µM.
`COc1ccc(-c2ccc(CNCC(N)=O)cc2)cc1` [Compound 17n] gave a melting point of 243 to 245 °C. For the same compound, the half-maximal inhibitory concentration (IC50) in series [1] was > 10 µM. Besides, in series [2], the IC50 was > 100 µM.
`C[C@H](NCc1ccc(-c2ccccc2)cc1)C(N)=O` [Compound 18a]: the melting point fell in the range of 252 to 256 °C. Further, the IC50 in series [3] (setting [6]) was > 10 µM. Moreover, the half-inhibitory concentration (IC50) in series [4] is > 100 µM.
With `C[C@H](NCc1ccc(-c2ccccc2F)cc1)C(N)=O` [Compound 18b], the melting point was 131 to 135 °C. Moreover, the “SI (selectivity index)” value in series [3] (setting [7]) is given as > 12. Moreover, the IC50 in series [4] was > 100 µM.
On to `C[C@H](NCc1ccc(-c2cccc(F)c2)cc1)C(N)=O` [Compound 18c], for which the melting point was in the range of 235 to 238 °C. In series [3] (setting [7]), the “SI (selectivity index)” value is listed as > 27. Besides, in series [4], the IC50 was > 100 µM.
In the case of `C[C@H](NCc1ccc(-c2ccc(F)cc2)cc1)C(N)=O` [Compound 18d], the melting point was 162 to 164 °C. Besides, the “SI (selectivity index)” value in series [3] (setting [7]) is listed as > 23. For the same compound, the IC50 in series [4] was > 100 µM.
As to `C[C@H](NCc1ccc(-c2ccccc2Cl)cc1)C(N)=O` [Compound 18e], the melting point was in the range of 216 to 220 °C. In addition, the IC50 in series [3] (setting [6]) is > 10 µM. Also, in series [4], the IC50 was > 100 µM.
`COc1ccc(-c2ccc(CN[C@@H](C)C(N)=O)cc2)cc1` [Compound 18n] gave a melting point of 231 to 233 °C. Also, in series [1], the concentration for half-maximal inhibition (IC50) amounted to 3.33 ± 0.054 µM and the “SI (selectivity index)” value is > 30. For the same compound, the half-inhibitory concentration (IC50) in series [2] was > 100 µM.
For `CC(C)Cc1ccc(-c2ccc(CN[C@@H](C)C(N)=O)cc2)cc1` [Compound 18o] the same measures were 253 to 256 °C, 0.325 ± 0.09 µM, > 307 and > 100 µM.
`CC(NCc1ccc(-c2ccc(C(F)(F)F)cc2)cc1)C(N)=O` (stereo not shown) [Compound 19j]: the half-maximal inhibitory concentration (IC50) in series [4] is > 100 µM.
Regarding `CC[C@H](NCc1ccc(-c2ccc(C(F)(F)F)cc2)cc1)C(N)=O` [Compound 20j], the melting point lay within 253 to 256 °C. Also, in series [1], the IC50 was 0.242 ± 0.008 µM and the “SI (selectivity index)” value is on record as > 413. Further, in series [2], the 50% inhibitory concentration (IC50) was > 100 µM.
In the case of `CC[C@H](NCc1ccc(-c2ccc(OC(F)(F)F)cc2)cc1)C(N)=O` [Compound 20l], the half-maximal inhibitory concentration (IC50) was 0.099 ± 0.005 µM in series [1] and > 100 µM in series [2]. In series [1], the “SI (selectivity index)” value is > 1,010.
On to `CC(C)[C@H](NCc1ccc(-c2cccc(C(F)(F)F)c2)cc1)C(N)=O` [Compound 21i], for which the melting point was 274 to 278 °C. Also, the half-maximal inhibitory concentration (IC50) in series [1] was > 10 µM. The IC50 in series [2] was > 100 µM.
For `CC(C)[C@H](NCc1ccc(-c2ccc(C(F)(F)F)cc2)cc1)C(N)=O` [Compound 21j], the melting point was 266 to 267 °C. In series [1], the half-inhibitory concentration (IC50) is 4.07 ± 0.15 µM and the “SI (selectivity index)” value is listed as > 25. The concentration for half-maximal inhibition (IC50) in series [2] is > 100 µM.
As for `CC(C)C[C@H](NCc1ccc(-c2cccc(F)c2)cc1)C(N)=O` [Compound 22c], the melting point lay within 264 to 265 °C. Moreover, the IC50 in series [1] was > 10 µM. In addition, in series [2], the 50% inhibitory concentration (IC50) is > 100 µM.
For `CC(C)C[C@H](NCc1ccc(-c2cccc(C(F)(F)F)c2)cc1)C(N)=O` [Compound 22i] the same measures were 239 to 243 °C, > 10 µM and > 100 µM.
Take `CC(C)C[C@H](NCc1ccc(-c2ccc(C(F)(F)F)cc2)cc1)C(N)=O` [Compound 22j]: the melting point was 267 to 270 °C. In addition, in series [1], the IC50 came to 5.3 ± 0.09 µM and the “SI (selectivity index)” value is reported as > 19. Further, in series [2], the 50% inhibitory concentration (IC50) is > 100 µM.
In turn, `CC(C)C[C@H](NCc1ccc(-c2cccc(OC(F)(F)F)c2)cc1)C(N)=O` [Compound 22k] had a melting point of 232 to 233 °C. The IC50 in series [1] is > 10 µM. The IC50 in series [2] was > 100 µM.
For `COc1cccc(-c2ccc(CN[C@@H](CC(C)C)C(N)=O)cc2)c1` [Compound 22m] the same measures were 240 to 242 °C, > 10 µM and > 100 µM.
Consider `CCC(C)[C@H](NCc1ccc(-c2cccc(F)c2)cc1)C(N)=O` (stereo partly shown) [Compound 23c], for which the melting point lay in the range of 252 to 255 °C. Besides, the IC50 in series [1] was > 10 µM. In series [2], the IC50 is > 100 µM.
For `CCC(C)[C@H](NCc1ccc(-c2cccc(Cl)c2)cc1)C(N)=O` (stereo partly shown) [Compound 23f] the same measures were 248 to 250 °C, 5 to 10 µM and > 100 µM.
In the same order, the values of `CCC(C)[C@H](NCc1ccc(-c2ccc(Cl)cc2)cc1)C(N)=O` (stereo partly shown) [Compound 23g] are 260 to 262 °C, > 10 µM and > 100 µM.
`CCC(C)[C@H](NCc1ccc(-c2cccc(C(F)(F)F)c2)cc1)C(N)=O` (stereo partly shown) [Compound 23i] came in with a melting point of 263 to 265 °C. Besides, the IC50 in series [1] was 5 to 10 µM. For the same compound, the half-inhibitory concentration (IC50) in series [2] was > 100 µM.
Turning to `C[C@H](NCc1ccc(OCc2cccc(F)c2)cc1)C(N)=O` [Safinamide, reference compound], in series [5], the “vertical grid test: time to turn” value was “reduced” and the “vertical grid test: total time” value was “reduced”.
Take `CC(=O)N[C@H]1CC(=O)N(c2ccc(OCc3cccc(F)c3)cc2)C1` [Sembragiline, reference compound]: the concentration for half-maximal inhibition (IC50) in series [3] (positive control, literature value, ref Borroni, E. et al. J. Pharmacol. Exp. Ther. 362, 413–423 (2017)) is 0.006 ± 0.001 µM; in series [1] it was 0.015 ± 0.005 µM; in series [2], 3.85 µM. Further, the “SI (selectivity index)” value in series [1] was 653.
